Key:
Format in all cases: biochemical
Conditions in all cases: read-out: remaining kinase activity (in %) / percentage of inhibition; for inhibition at 0.01 µM: compound at 10 nM; for inhibition at 0.1 µM: compound at 100 nM
MST2 = target: T1, MST2 (Homo sapiens, UniProt Q13188); experiment: LabChip (Caliper) kinase assay, MST2
T1 construct: purchased Upstate
T1 sequence (Q13188 1-491): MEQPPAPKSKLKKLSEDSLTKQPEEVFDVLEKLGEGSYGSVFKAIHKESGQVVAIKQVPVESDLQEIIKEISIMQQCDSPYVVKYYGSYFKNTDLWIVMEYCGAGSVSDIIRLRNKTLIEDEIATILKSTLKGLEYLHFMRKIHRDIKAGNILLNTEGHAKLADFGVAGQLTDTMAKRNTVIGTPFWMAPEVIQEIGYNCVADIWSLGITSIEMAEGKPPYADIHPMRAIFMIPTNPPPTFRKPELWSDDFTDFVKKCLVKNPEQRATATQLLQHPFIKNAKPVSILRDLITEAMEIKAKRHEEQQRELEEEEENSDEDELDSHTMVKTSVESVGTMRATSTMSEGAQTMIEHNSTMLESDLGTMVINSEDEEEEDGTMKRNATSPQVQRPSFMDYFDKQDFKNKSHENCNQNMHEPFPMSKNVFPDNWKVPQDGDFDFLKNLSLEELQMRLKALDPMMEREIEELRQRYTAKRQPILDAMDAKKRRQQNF
Experimental: (§1) The analysis of kinase activity described here was performed using LabChip (Caliper Life Sciences), specifically the Caliper LC3000 and the EZ Reader II instruments.
(§2) The kinase assay used measures the conversion of a fluorescent peptide (substrate) to a phosphorylated product. The reaction mixture, in a microplate well, is introduced by a capillary in a chip where the non-phosphorylated substrate and the phosphorylated product are separated by […]. The intensity of the fluorescent signal over time is related to the reaction progress. The phosphorylated product migrates quicker than the non-phosphorylated substrate and the signals of the two forms of the peptide appear as differentiated peaks. The Caliper determines the peak height and calculates the ratio of product to the peak sum (P/(P+S)). This value is used to compare wells with compounds and wells with controls and thus determine the % of inhibition for the given product.
(§3) The followings kinases were used for the enzymatic inhibition studies, between brackets the value of the Michaelis-Menten constant, Km, of the ATP (Adenosine triphosphate) for each kinase, in μM: obtained from Carna Biosciences: MAPKAPK2 (4.6), AurA (3.6), AurB (5), PKCζ (3.8), RSK1 (23.3), PRAK (5), Erk1 (33.4), PKD2 (32.1), CK1d (16.3), CHK1 (33), ABL (61.7), FYN (36), LYNa (17), CHK2 (57.8), MET (79.5), LCK (28.5), SRC (38), GSK3β (7.3), Erk2 (62.1), PKACα (1.7), AKT2 (186.1), INSR (871.8), p38a (396.5), AKT1(48), MSK1 (21.2), PKCβ2 (84.8), ROCK2 (3.3), PIM2 (4.9), AMPK (38.6), KDR (164.8), IRAK4 (196.5), SGK1 (121.8), SYK (33.5); obtained from Invitrogen: CDK2 (57.6), BTK (123), HGK (80); obtained from Upstate: MST2 (36.6), PKGα (16), PAK2 (1.9), IGF1R (320), FGFR1 (171), MARK1 (33), CAMK2δ (22.4), c-TAK1 (66), DYRK1a (18.1), CaMK4 (3.9), FLT3 (350), c-Raf (6.2), P70S6K (95).
(§4) The compounds were dissolved in 100% DMSO and were diluted at 25 times the final concentration desired for the assay. In the case of the determination of Cl50, serial dilutions were made to reach eight concentrations and give rise to the inhibition curve. 1 μL of each concentration is transferred, in duplicate to a 384-well microplate. 12 μL of enzymatic buffer is added to each well containing purified kinase (several suppliers as indicated above), 100 mM HEPES, pH 7.5, 1 mM DTT (Calbiochem), 0.002% Brij-35 (Sigma) and also in presence of 10 mM MgCl2 as cofactor, except for INSR and IRAK4 wherein 10 mM MnCl2 is used instead of MgCl2. For the kinases CAMK26 and CAMK4, 1 mM CaCl2 and 6.7 μg/mL of calmodulin are also added. For KDR kinase, 0.05% of the CHAPSO detergent is added. For the c-Raf kinase, 10 mM MnCl2 is added. For PKCβ2 0.02 μg/mL of PS/PMA is added. For PKGα se 10 μM of cGMP (cyclic guanosine monophosphate) is added. The compound and the enzyme are left for 15 minutes preincubation and, then, the following are added to each well: 12 μL of peptide buffer/ATP containing 100 mM HEPES, pH 7.5, 1.5 μM peptide marker with fluorescein (specific for the corresponding kinase), ATP (at concentration KM), and 0.002% Brij-35 to start the reaction. Generally, the reactions are incubated for 1-1.5 h at ambient temperature to obtain an adequate conversion (15-40%) of the peptide to the phosphorylated product. The reactions were ended by the addition of 45 μL of buffer containing 0 mM EDTA. The microplates were read by the LabChip 3000 using a 12-channel LabChip. The P/(P+S) values were obtained as described above and the CI50 curves were generated using XIfit. […]

GSK3b = target: T2, GSK3b (Homo sapiens, UniProt P49841); experiment: LabChip (Caliper) kinase assay, GSK3b
T2 construct: purchased Carna Biosciences
T2 sequence (P49841 whole entry): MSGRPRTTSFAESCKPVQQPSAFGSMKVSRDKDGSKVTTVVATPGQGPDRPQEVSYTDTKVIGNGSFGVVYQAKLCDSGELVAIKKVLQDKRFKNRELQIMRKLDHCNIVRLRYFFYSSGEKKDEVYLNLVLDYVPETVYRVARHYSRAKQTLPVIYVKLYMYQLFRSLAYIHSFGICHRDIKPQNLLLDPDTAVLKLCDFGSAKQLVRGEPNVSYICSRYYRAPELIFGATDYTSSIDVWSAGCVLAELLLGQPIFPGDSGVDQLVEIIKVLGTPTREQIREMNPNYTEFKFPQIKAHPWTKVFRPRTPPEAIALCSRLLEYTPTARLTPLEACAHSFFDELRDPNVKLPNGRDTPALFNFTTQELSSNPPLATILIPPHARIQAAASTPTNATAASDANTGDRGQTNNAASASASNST
Experimental: as §1, §2, §3, §4

p38a = target: T3, p38a (Homo sapiens, UniProt Q16539); experiment: LabChip (Caliper) kinase assay, p38a
T3 construct: purchased Carna Biosciences
T3 sequence (Q16539 whole entry): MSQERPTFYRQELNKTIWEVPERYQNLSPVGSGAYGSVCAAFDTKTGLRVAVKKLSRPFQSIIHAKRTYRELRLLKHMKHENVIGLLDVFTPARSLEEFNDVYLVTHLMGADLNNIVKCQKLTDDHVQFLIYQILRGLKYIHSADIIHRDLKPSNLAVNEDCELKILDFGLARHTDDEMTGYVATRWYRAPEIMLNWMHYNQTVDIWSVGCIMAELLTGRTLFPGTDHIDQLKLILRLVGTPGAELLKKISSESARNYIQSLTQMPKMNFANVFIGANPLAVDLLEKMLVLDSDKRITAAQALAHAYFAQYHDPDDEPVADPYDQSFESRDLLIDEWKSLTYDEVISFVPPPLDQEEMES
Experimental: as §1, §2, §3, §4

Work on C[C@@H]1O[C@@H](n2c3ccccc3c3c4c(c5c6ccccc6[nH]c5c32)CNC4=O)[C@H](O)[C@H](O)[C@H]1O [formula (XII), N^13-1′-β-L-rhamnosyl-k252c] yielded an inhibition at 0.01 µM (MST2) of 4%, an inhibition at 0.1 µM (MST2) of 19% and an inhibition at 0.01 µM (GSK3b) of 3%. It also gave an inhibition at 0.1 µM (GSK3b) of 8%, an inhibition at 0.01 µM (p38a) of -1% and an inhibition at 0.1 µM (p38a) of 0%.
Compound C[C@@H]1O[C@@H](n2c3ccccc3c3c4c(c5c6ccccc6[nH]c5c32)C(=O)NC4=O)C[C@H](O)[C@H]1O [formula (IV), N^13-1′-β-L-olivosylarcyriaflavin] has an inhibition at 0.01 µM (MST2) of 2%, an inhibition at 0.1 µM (MST2) of 15% and an inhibition at 0.01 µM (GSK3b) of 21%. The inhibition at 0.1 µM (GSK3b) was 69%, the inhibition at 0.01 µM (p38a) was -2% and the inhibition at 0.1 µM (p38a) was -2%.
Work on C[C@H]1O[C@@H](n2c3ccccc3c3c4c(c5c6ccccc6[nH]c5c32)C(=O)NC4=O)C[C@@H](O)[C@@H]1O [formula (VI), N^13-1′-β-D-olivosylarcyriaflavin] yielded an inhibition at 0.01 µM (MST2) of 13%, an inhibition at 0.1 µM (MST2) of 65% and an inhibition at 0.01 µM (GSK3b) of 18%. It also gave an inhibition at 0.1 µM (GSK3b) of 69%, an inhibition at 0.01 µM (p38a) of -1% and an inhibition at 0.1 µM (p38a) of -1%.
Compound C[C@@H]1O[C@@H](n2c3ccccc3c3c4c(c5c6ccccc6[nH]c5c32)C(=O)NC4=O)C[C@@H](O)[C@H]1O [formula (V), N^13-1′-β-L-digitoxosylarcyriaflavin] has an inhibition at 0.01 µM (MST2) of 16%, an inhibition at 0.1 µM (MST2) of 54% and an inhibition at 0.01 µM (GSK3b) of 42%. For the same compound, the inhibition at 0.1 µM (GSK3b) was 81%, the inhibition at 0.01 µM (p38a) was 1% and the inhibition at 0.1 µM (p38a) was -2%.
Compound C[C@@H]1O[C@@H](n2c3ccccc3c3c4c(c5c6ccccc6[nH]c5c32)C(=O)NC4=O)[C@H](O)[C@H](O)[C@H]1O [formula (III), N^13-1′-β-L-rhamnosylarcyriaflavin] has an inhibition at 0.01 µM (MST2) of 2%, an inhibition at 0.1 µM (MST2) of 10% and an inhibition at 0.01 µM (GSK3b) of 21%. For the same compound, the inhibition at 0.1 µM (GSK3b) was 72%, the inhibition at 0.01 µM (p38a) was 0% and the inhibition at 0.1 µM (p38a) was -1%.
In the case of C[C@@H]1O[C@@H](n2c3ccccc3c3c4c(c5c6ccccc6[nH]c5c32)CNC4=O)C[C@@H](O)[C@H]1O [formula (XIV), N^13-1′-β-L-digitoxosyl-k252c], the inhibition at 0.01 µM (MST2) is reported as 7%, the inhibition at 0.1 µM (MST2) is reported as 34% and the inhibition at 0.01 µM (GSK3b) is reported as 1%. For the same compound, the inhibition at 0.1 µM (GSK3b) was 7%, the inhibition at 0.01 µM (p38a) was -1% and the inhibition at 0.1 µM (p38a) was -2%.
Compound C[C@H]1O[C@@H](n2c3ccccc3c3c4c(c5c6ccccc6[nH]c5c32)CNC4=O)C[C@@H](O)[C@@H]1O [formula (XV), N^13-1′-β-D-olivosyl-k252c] has an inhibition at 0.01 µM (MST2) of 12%, an inhibition at 0.1 µM (MST2) of 78% and an inhibition at 0.01 µM (GSK3b) of 0%. The inhibition at 0.1 µM (GSK3b) was 0%, the inhibition at 0.01 µM (p38a) was -1% and the inhibition at 0.1 µM (p38a) was -3%.
Compound C[C@@H]1O[C@@H](n2c3ccccc3c3c4c(c5c6ccccc6[nH]c5c32)CNC4=O)C[C@H](O)[C@H]1O [formula (XIII), N^13-1′-β-L-olivosyl-k252c] has an inhibition at 0.01 µM (MST2) of 4%, an inhibition at 0.1 µM (MST2) of 33% and an inhibition at 0.01 µM (GSK3b) of 2%. For the same compound, the inhibition at 0.1 µM (GSK3b) was 9%, the inhibition at 0.01 µM (p38a) was -2% and the inhibition at 0.1 µM (p38a) was -3%.

— patent US8598132B2, “Glycosylated indolocarbazoles, method for obtaining same and uses thereof” (Universidad de Oviedo, priority 2008, dated 2013)
